The structures appear in SMILES notation. Where a name gives a salt, the structure may show the parent alone.

The record followed here is patent US11332459B2 (TEIJIN PHARMA LIMITED, priority 2017, dated 2022).

The test deals with T1, human TRPC6 (Homo sapiens, UniProt Q9Y210).
T1 construct: expressed in transfected cells
T1 sequence (Q9Y210 1-931): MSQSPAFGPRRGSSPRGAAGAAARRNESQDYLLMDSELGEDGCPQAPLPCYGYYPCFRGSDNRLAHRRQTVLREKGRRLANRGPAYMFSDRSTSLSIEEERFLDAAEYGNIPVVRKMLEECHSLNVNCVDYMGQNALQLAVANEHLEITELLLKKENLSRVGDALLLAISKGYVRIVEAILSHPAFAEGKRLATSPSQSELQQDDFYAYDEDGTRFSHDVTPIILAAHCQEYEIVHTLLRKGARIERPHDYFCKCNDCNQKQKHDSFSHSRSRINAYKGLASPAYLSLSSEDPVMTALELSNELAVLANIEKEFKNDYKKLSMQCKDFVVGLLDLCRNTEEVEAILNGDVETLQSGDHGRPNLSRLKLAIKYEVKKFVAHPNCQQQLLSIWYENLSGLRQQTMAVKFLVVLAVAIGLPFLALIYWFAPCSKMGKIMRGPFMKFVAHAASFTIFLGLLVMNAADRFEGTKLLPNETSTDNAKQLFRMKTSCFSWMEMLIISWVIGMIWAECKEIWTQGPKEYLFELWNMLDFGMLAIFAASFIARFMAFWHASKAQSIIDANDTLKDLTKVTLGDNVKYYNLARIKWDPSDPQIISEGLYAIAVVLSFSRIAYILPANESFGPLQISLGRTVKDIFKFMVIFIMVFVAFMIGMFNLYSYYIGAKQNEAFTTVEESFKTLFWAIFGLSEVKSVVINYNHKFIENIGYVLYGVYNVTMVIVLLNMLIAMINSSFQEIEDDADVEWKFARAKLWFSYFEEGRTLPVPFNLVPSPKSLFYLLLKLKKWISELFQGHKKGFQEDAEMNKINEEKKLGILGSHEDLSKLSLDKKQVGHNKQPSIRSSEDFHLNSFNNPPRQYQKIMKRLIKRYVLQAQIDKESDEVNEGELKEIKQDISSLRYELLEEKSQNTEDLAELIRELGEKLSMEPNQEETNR
Description: TRPC6 calcium flux assay (FLIPR, OAG-stimulated calcium influx). Particulars: HEK293 cells stably transfected with human TRPC6, read-out: hTRPC6 Potency. It is filed as cell-based. In a few lines: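 IC50 derived by plotting background-corrected peak fluorescence (180 s window, normalized to OAG-triggered signal vs buffer) against dose. Stable human TRPC6 HEK293 line was dye-loaded, exposed to compound 25 min, then challenged with 50 uM final OAG in 2 mM Ca2+ HEPES buffer pH 7.2, 0.5% DMSO.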
For `COc1cccc2c1nc(N1CCC(F)(F)[C@H](N)C1)n2Cc1ccc(C#N)cc1` [Example 410, (R)-4-((2-(3-amino-4,4-difluoropiperidin-1-yl)-4-methoxy-1H-benzo[d]imidazol-1-yl)methyl)benzonitrile], the IC50 turned out to be 10.5 nM.

Consider `C[C@H](c1ccc(C#N)cc1)n1c(N2CCC[C@H](N)C2)nc2ccccc21` [Example 313, 4-((R)-1-(2-((S)-3-aminopiperidin-1-yl)-1H-benzo[d]imidazol-1-yl)ethyl)benzonitrile hydrochloride], for which the IC50 was determined as 15800 nM.

As to `N[C@@H]1CN(c2nc3cc(F)cc(F)c3n2Cc2ncc(Cl)cn2)CC[C@H]1F` [Example 257, (3R,4R)-1-(1-((5-chloro-2-pyrimidinyl)methyl)-5,7-difluoro-1H-benzimidazol-2-yl)-4-fluoro-3-piperidinamine], the IC50 was 52.4 nM.

Take `CS(=O)(=O)c1ccc2c(c1)nc(N1CC[C@@H](F)[C@H](N)C1)n2Cc1ccc(Cl)cn1` [Example 30, (3R,4R)-1-(1-((5-chloropyridin-2-yl)methyl)-5-(methylsulfonyl)-1H-benzo[d]imidazol-2-yl)-4-fluoropiperidin-3-amine]: the IC50 stood at 1940 nM.

As for `N[C@H]1CCCN(c2nc3ccccc3n2Cc2ccc(F)cc2)C1` [Example 368, (S)-1-(1-(4-fluorobenzyl)-1H-benzo[d]imidazol-2-yl)piperidin-3-amine], the IC50 worked out at 99.2 nM.

Turning to `N[C@@H]1CN(c2nc3ccc(F)cc3n2CC(=O)N(CC(F)(F)F)C2CC2)CC[C@H]1F` [Example 662, 2-(2-((3R,4R)-3-amino-4-fluoropiperidin-1-yl)-6-fluoro-1H-benzo[d]imidazol-1-yl)-N-cyclopropyl-N-(2,2,2-trifluoroethyl)acetamide], the IC50 is 283 nM.

Consider `N#Cc1cnc(Cn2c(N3CCC(F)(F)[C@H](N)C3)nc3ccc(Cl)cc32)cn1` [Example 233, (R)-5-((2-(3-amino-4,4-difluoropiperidin-1-yl)-6-chloro-1H-benzo[d]imidazol-1-yl)methyl)pyrazine-2-carbonitrile], for which the IC50 is 1.47 nM.

In the case of `Cc1nc(-c2ccccc2)sc1Cn1c(N2CC[C@@H](F)[C@H](N)C2)nc2cc(F)ccc21` [Example 593, (3R,4R)-4-fluoro-1-(5-fluoro-1-((4-methyl-2-phenylthiazol-5-yl)methyl)-1H-benzo[d]imidazol-2-yl)piperidin-3-amine], the IC50 was 2120 nM.

Take `N#Cc1ccc(Cn2c(N3CC[C@H](O)[C@H](N)C3)nc3ccc(Cl)cc32)nc1` [Example 153, 6-((2-((3R,4S)-3-amino-4-hydroxypiperidin-1-yl)-6-chloro-1H-benzo[d]imidazol-1-yl)methyl)nicotinonitrile]: the IC50 is 72 nM.

Consider `CCOc1ccc2nc(N3CC[C@@H](F)C(N)C3)n(Cc3ccc(C#N)cc3)c2c1` (stereo in doubt) [Example 414, 4-((2-((3R,4R)-3-amino-4-fluoro-1-piperidinyl)-6-ethoxy-1H-benzimidazol-1-yl)methyl)benzonitrile], for which the IC50 stood at 1.5 nM.

In the case of `N#Cc1ccc(Cn2c(N3CC[C@@H](F)[C@H](N)C3)nc3c(F)cc(F)cc32)cc1` [Example 157, 4-((2-((3R,4R)-3-amino-4-fluoro-1-piperidinyl)-4,6-difluoro-1H-benzimidazol-1-yl)methyl)benzonitrile], the IC50 is 0.501 nM.

Turning to `N#Cc1ccc(Cn2c(N3CC[C@@H](F)[C@H](N)C3)nc3c(Cl)cc(Cl)cc32)nc1` [Example 58, 6-((2-((3R,4R)-3-amino-4-fluoropiperidin-1-yl)-4,6-dichloro-1H-benzo[d]imidazol-1-yl)methyl)nicotinonitrile], the IC50 was determined as 0.469 nM.

`CCN(C(=O)Cn1c(N2CC[C@@H](F)[C@H](N)C2)nc2cc(F)c(F)cc21)C1CCS(=O)(=O)C1` (mixture of isomers) [Example 527, 2-(2-((3R,4R)-3-amino-4-fluoropiperidin-1-yl)-5,6-difluoro-1H-benzo[d]imidazol-1-yl)-N-(1,1-dioxidotetrahydrothiophen-3-yl)-N-ethylacetamide]: the IC50 came to 3010 nM.

As to `CN(CC(F)(F)F)C(=O)Cn1c(N2CCC(F)(F)[C@H](N)C2)nc2ccc(F)cc21` [Example 465, (R)-2-(2-(3-amino-4,4-difluoropiperidin-1-yl)-6-fluoro-1H-benzo[d]imidazol-1-yl)-N-methyl-N-(2,2,2-trifluoroethyl)acetamide], the IC50 stood at 86.7 nM.

As to `C[C@@H](c1ccc(C#N)cn1)n1c(N2CCC[C@H](N)C2)nc2ccccc21` [Example 296, 6-((S)-1-(2-((S)-3-aminopiperidin-1-yl)-1H-benzo[d]imidazol-1-yl)ethyl)nicotinonitrile hydrochloride], the IC50 was determined as 7.65 nM.

As to `N#Cc1cc(Cl)ccc1Cn1c(N2CC[C@@H](F)[C@H](N)C2)nc2cc(F)c(F)cc21` [Example 340, 2-((2-((3R,4R)-3-amino-4-fluoro-1-piperidinyl)-5,6-difluoro-1H-benzimidazol-1-yl)methyl)-5-chlorobenzonitrile], the IC50 is 0.704 nM.

In the case of `COc1ccc2nc(N3CC[C@H](F)[C@H](N)C3)n(Cc3ccc(C#N)cc3)c2c1` [Example 403, 4-((2-((3R,4S)-3-amino-4-fluoropiperidin-1-yl)-6-methoxy-1H-benzo[d]imidazol-1-yl)methyl)benzonitrile], the IC50 was 0.395 nM.

For the compound `CN(C)S(=O)(=O)c1ccc(Cn2c(N3CCC[C@@H](N)C3)nc3ccccc32)cc1` [Example 385, (R)-4-((2-(3-aminopiperidin-1-yl)-1H-benzo[d]imidazol-1-yl)methyl)-N,N-dimethylbenzenesulfon-amide], the IC50 is over 50000 nM.

Consider `COc1cc(F)cc2c1nc(N1CC[C@@H](F)[C@H](N)C1)n2CC(=O)N1CCOCC1` [Example 545, 2-(2-((3R,4R)-3-amino-4-fluoropiperidin-1-yl)-6-fluoro-4-methoxy-1H-benzo[d]imidazol-1-yl)-1-morpholinoethan-1-one], for which the IC50 was over 3750 nM.

As to `CN[C@@H]1CN(c2nc3c(F)cc(F)cc3n2[C@@H](C)c2ccc(C#N)cn2)CC[C@H]1F` (single isomer, unassigned) [Example 439], the IC50 came to 36.7 nM.

Regarding `N#Cc1ccc(Cn2c(N3CCC[C@H](N)C3)nc3ccc(Cl)cc32)nc1` [Example 1, (S)-6-((2-(3-aminopiperidin-1-yl)-6-chloro-1H-benzo[d]imidazol-1-yl)methyl)nicotinonitrile], the IC50 is 0.696 nM.

For the compound `N#Cc1cnc(Cn2c(N3CC[C@@H](F)[C@H](N)C3)nc3ccc(F)cc32)nc1` [Example 442, 2-((2-((3R,4R)-3-amino-4-fluoropiperidin-1-yl)-6-fluoro-1H-benzo[d]imidazol-1-yl)methyl)pyrimidine-5-carbonitrile], the IC50 is 0.319 nM.

Regarding `N[C@@H]1CN(c2nc3ccc(F)cc3n2CC(=O)NC2CCC2)CC[C@H]1F` [Example 668, 2-(2-((3R,4R)-3-amino-4-fluoropiperidin-1-yl)-6-fluoro-1H-benzo[d]imidazol-1-yl)-N-cyclobutylacetamide], the IC50 is 778 nM.

`CN(CC(F)(F)F)C(=O)Cn1c(N2CC[C@H]3OCCN[C@@H]3C2)nc2ccc(F)cc21` [Example 488, 2-(6-fluoro-2-((4aR,8aR)-hexahydro-2H-pyrido[4,3-b][1,4]oxazin-6(5H)-yl)-1H-benzo[d]imidazol-1-yl)-N-methyl-N-(2,2,2-trifluoroethyl)acetamide]: the IC50 is over 3750 nM.
